Patent US9833497B2, “Human originated EGF domain proteins and use of the same” (CHENGDU SOURCEBIO LIMITED-LIABILITY COMPANY, priority 2013, dated 2017)

Assays:
Assay type in all cases: cell-based
[1] = system: E. coli DH5α; test: Antibacterial activity: MIC and growth curve against E. coli DH5α in 96-well plate; details: minimal inhibitory concentration against E. coli DH5α; 96-well plate, 5×10^5 CFU/mL, 37° C., judged after 8 h
Method in brief: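 Log-phase bacteria (OD600 ~0.5) resuspended in LB at 5×10^5 CFU/mL, exposed to recombinant protein at 50, 25, 12.5 μg/mL final in triplicate, 37 °C shaking at 175 rpm. OD600 read every 30 min; MIC is lowest concentration showing no growth.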

[2] = system: E. coli BL21; test: MIC against Gram-negative bacteria: E. coli BL21; details: for MIC / MIC (μg/mL) E. coli BL21: 10 h cultivation at 37° C.
Method in brief: (§1)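 Bacteria grown in LB at 37° C to McFarland 0.5, resuspended and seeded at 5×10^5 CFU/mL in 96-well plates. Purified human EGF-domain proteins two-fold serially diluted, triplicate wells; cultured at 37° C, shaking 175 rpm. MIC = lowest protein concentration with no growth.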

[3] = system: Pseudomonas aeruginosa; test: MIC against Gram-negative bacteria: Pseudomonas aeruginosa; details: for MIC / MIC (μg/mL) P. aeruginosa: P. aeruginosa, 10 h cultivation at 37° C.
Method in brief: as §1

[4] = system: Klebsiella pneumonia; test: MIC against Gram-negative bacteria: Klebsiella pneumonia; details: for MIC / MIC (μg/mL) K. pneumonia: K. pneumonia, 10 h cultivation at 37° C.
Method in brief: as §1

[5] = system: Enterobacter cloacae; test: MIC against Gram-negative bacteria: Enterobacter cloacae; details: for MIC / MIC (μg/mL) E. cloacae: E. cloacae, 10 h cultivation at 37° C.
Method in brief: as §1

[6] = system: Aeromonas hydrophila; test: MIC against Gram-negative bacteria: Aeromonas hydrophila; details: for MIC / MIC (μg/mL) A. hydrophila: A. hydrophila, 10 h cultivation at 37° C.
Method in brief: as §1

[7] = system: Citrobacter diversus; test: MIC against Gram-negative bacteria: Citrobacter diversus; details: for MIC / MIC (μg/mL) C. diversus: C. diversus, 10 h cultivation at 37° C.
Method in brief: as §1

[8] = system: Moraxella catarrhalis; test: MIC against Gram-negative bacteria: Moraxella catarrhalis; details: for MIC / MIC (μg/mL) M. catarrhalis: M. catarrhalis, 10 h cultivation at 37° C.
Method in brief: as §1

[9] = system: Proteus mirabilis; test: MIC against Gram-negative bacteria: Proteus mirabilis; details: for MIC / MIC (μg/mL) P. mirabilis: P. mirabilis, 10 h cultivation at 37° C.
Method in brief: as §1

[10] = system: Proteus vulgaris; test: MIC against Gram-negative bacteria: Proteus vulgaris; details: for MIC / MIC (μg/mL) P. vulgaris: P. vulgaris, 10 h cultivation at 37° C.
Method in brief: as §1

[11] = system: Serratia marcescens; test: MIC against Gram-negative bacteria: Serratia marcescens; details: for MIC / MIC (μg/mL) S. marcescens: S. marcescens, 10 h cultivation at 37° C.
Method in brief: as §1

[12] = 96-well plate, 5×10^5 CFU/mL, 37° C., 10 h

Substance	MIC [1] [µg/mL]	MIC ([2]; E. coli BL21) [µg/mL]	MIC [3] [µg/mL]	MIC [4] [µg/mL]	MIC [5] [µg/mL]	MIC [6] [µg/mL]	MIC [7] [µg/mL]	MIC [8] [µg/mL]	MIC [9] [µg/mL]	MIC [10] [µg/mL]	MIC [11] [µg/mL]	other results
PRT1031 (MCVTYHNGTGYCKCPEGFLGEYCQ; listed as Homo sapiens)	12.5	50	12.5	50	12.5	50	25	12.5	12.5	50	12.5	–
PRT1019 (NLDDCIAATCAPGSTCIDRVGSFSCLCPPGRTGLLCH; listed as Homo sapiens)	12.5	50	12.5	25	50	12.5	50	12.5	50	12.5	25	–
PRT249 (EAICAKPCLNGGVCVRPDQCECAPGWGGKHCH; listed as Homo sapiens)	25	–	–	–	–	–	–	–	–	–	–	MIC (μg/mL) E. coli BL21 ([2]; E. coli BL21, 5×10^5 CFU/mL): 12.5 µg/mL; MIC (μg/mL) P. aeruginosa ([3]; 5×10^5 CFU/mL): 12.5 µg/mL; MIC (μg/mL) K. pneumonia ([4]; 5×10^5 CFU/mL): 12.5 µg/mL; MIC (μg/mL) E. cloacae ([5]; 5×10^5 CFU/mL): 25 µg/mL; MIC (μg/mL) A. hydrophila ([6]; 5×10^5 CFU/mL): 12.5 µg/mL; MIC (μg/mL) C. diversus ([7]; 5×10^5 CFU/mL): 25 µg/mL; MIC (μg/mL) M. catarrhalis ([8]; 5×10^5 CFU/mL): 12.5 µg/mL; MIC (μg/mL) P. mirabilis ([9]; 5×10^5 CFU/mL): 12.5 µg/mL; MIC (μg/mL) P. vulgaris ([10]; 5×10^5 CFU/mL): 12.5 µg/mL; MIC (μg/mL) S. marcescens ([11]; 5×10^5 CFU/mL): 12.5 µg/mL
PRT896 (EVNECNSNPCVHGACRDSLNGYKCDCDPGWSGTNCD; listed as Homo sapiens)	25	50	25	12.5	50	12.5	50	12.5	25	50	12.5	–
PRT798 (FGQDCAQLCSCANNGTCSPIDGSCQCFPGWIGKDCS; listed as Homo sapiens)	12.5	–	–	–	–	–	–	–	–	–	–	MIC (μg/mL) E. coli BL21 ([2]; E. coli BL21, 5×10^5 CFU/mL): 25 µg/mL; MIC (μg/mL) P. aeruginosa ([3]; 5×10^5 CFU/mL): 12.5 µg/mL; MIC (μg/mL) K. pneumonia ([4]; 5×10^5 CFU/mL): 50 µg/mL; MIC (μg/mL) E. cloacae ([5]; 5×10^5 CFU/mL): 12.5 µg/mL; MIC (μg/mL) A. hydrophila ([6]; 5×10^5 CFU/mL): 50 µg/mL; MIC (μg/mL) C. diversus ([7]; 5×10^5 CFU/mL): 12.5 µg/mL; MIC (μg/mL) M. catarrhalis ([8]; 5×10^5 CFU/mL): 50 µg/mL; MIC (μg/mL) P. mirabilis ([9]; 5×10^5 CFU/mL): 12.5 µg/mL; MIC (μg/mL) P. vulgaris ([10]; 5×10^5 CFU/mL): 50 µg/mL; MIC (μg/mL) S. marcescens ([11]; 5×10^5 CFU/mL): 25 µg/mL
PRT1029 (PANPCEDGSHTCAPAGQARCVHHGGSTFSCACLPGYAGDGHQCT; listed as Homo sapiens)	12.5	12.5	50	12.5	50	12.5	50	12.5	50	12.5	50	–
PRT992 (LEDMCLSQPCHGDAQCSTNPLTGSTLCLCQPGYSGPTCH; listed as Homo sapiens)	12.5	12.5	12.5	12.5	25	25	25	25	25	12.5	25	–
PRT225 (DIDECSYSSYLCQYRCINEPGRFSCHCPQGYQLLATRLCQ; listed as Homo sapiens)	12.5	–	–	–	–	–	–	–	–	–	–	MIC (μg/mL) E. coli BL21 ([2]; E. coli BL21, 5×10^5 CFU/mL): 50 µg/mL; MIC (μg/mL) P. aeruginosa ([3]; 5×10^5 CFU/mL): 12.5 µg/mL; MIC (μg/mL) K. pneumonia ([4]; 5×10^5 CFU/mL): 50 µg/mL; MIC (μg/mL) E. cloacae ([5]; 5×10^5 CFU/mL): 25 µg/mL; MIC (μg/mL) A. hydrophila ([6]; 5×10^5 CFU/mL): 12.5 µg/mL; MIC (μg/mL) C. diversus ([7]; 5×10^5 CFU/mL): 25 µg/mL; MIC (μg/mL) M. catarrhalis ([8]; 5×10^5 CFU/mL): 50 µg/mL; MIC (μg/mL) P. mirabilis ([9]; 5×10^5 CFU/mL): 25 µg/mL; MIC (μg/mL) P. vulgaris ([10]; 5×10^5 CFU/mL): 12.5 µg/mL; MIC (μg/mL) S. marcescens ([11]; 5×10^5 CFU/mL): 25 µg/mL
PRT1222 (SVNYCECNPCFNGGSCQSGVDSYYCHCPFGVFGKHCE; listed as Homo sapiens)	12.5	–	–	–	–	–	–	–	–	–	–	MIC against E. coli BL21 ([2]; E. coli BL21, 96-well plate, 5×10^5 CFU/mL, 37° C., 10 h): 25 µg/mL; MIC against P. aeruginosa ([3]; Pseudomonas aeruginosa, 96-well plate, 5×10^5 CFU/mL, 37° C., 10 h): 50 µg/mL; MIC against K. pneumonia ([4]; Klebsiella pneumonia, 96-well plate, 5×10^5 CFU/mL, 37° C., 10 h): 12.5 µg/mL; MIC against E. cloacae ([5]; Enterobacter cloacae, 96-well plate, 5×10^5 CFU/mL, 37° C., 10 h): 25 µg/mL; MIC against A. hydrophila ([6]; Aeromonas hydrophila, 96-well plate, 5×10^5 CFU/mL, 37° C., 10 h): 50 µg/mL; MIC against C. diversus ([7]; Citrobacter diversus, 96-well plate, 5×10^5 CFU/mL, 37° C., 10 h): 12.5 µg/mL; MIC against M. catarrhalis ([8]; Moraxella catarrhalis, 96-well plate, 5×10^5 CFU/mL, 37° C., 10 h): 25 µg/mL; MIC against P. mirabilis ([9]; Proteus mirabilis, 96-well plate, 5×10^5 CFU/mL, 37° C., 10 h): 50 µg/mL; MIC against P. vulgaris ([10]; Proteus vulgaris, 96-well plate, 5×10^5 CFU/mL, 37° C., 10 h): 25 µg/mL; MIC against S. marcescens ([11]; Serratia marcescens, 96-well plate, 5×10^5 CFU/mL, 37° C., 10 h): 12.5 µg/mL
PRT661 (QAEECGILNGCENGRCVRVREGYTCDCFEGFQLDAAHMACV; listed as Homo sapiens)	50	–	–	–	–	–	–	–	–	–	–	MIC E. coli BL21 [2, 12]: 25 µg/mL; MIC P. aeruginosa [3, 12]: 12.5 µg/mL; MIC K. pneumonia [4, 12]: 25 µg/mL; MIC E. cloacae [5, 12]: 50 µg/mL; MIC A. hydrophila [6, 12]: 25 µg/mL; MIC C. diversus [7, 12]: 12.5 µg/mL; MIC M. catarrhalis [8, 12]: 25 µg/mL; MIC P. mirabilis [9, 12]: 50 µg/mL; MIC P. vulgaris [10, 12]: 25 µg/mL; MIC S. marcescens [11, 12]: 25 µg/mL
PRT1023 (PINYCETGLHNCDIPQRAQCIYTGGSSYTCSCLPGFSGDGQACQ; listed as Homo sapiens)	25	12.5	25	12.5	25	12.5	25	12.5	12.5	50	12.5	–
